Measurements reported in publication doi:10.1101/2024.01.03.574093v2 (biorxiv, 2024).
Like-named read-outs stand apart in the source and are kept apart here. *1 amine or outer side, *2 acyl side, *3 side chain or, on linkers, in order; H or OH if unused. Where a SMILES comes first, the peptide text is derived from it. [ ]: non-standard residue; d: D form. The star is where a group is joined. X1 = Cc1nc(N[*:1])sc1-c1cc(C(=O)[*:2])n[nH]1; Bz = O=C(c1ccccc1)*

What was measured:
Test in all cases: cell-based
[1] = biological target: T1, JHR (GCE:TAI) (Drosophila melanogaster, UniProt Q9VXW7); settings: Drosophila Kc167, read-out: JHR Efficacy [%]
[2] = biological target: T2, human AHR (Homo sapiens, UniProt P35869); parameters: species or system HepG2 (AZ-AHR); settings: HepG2, read-out: AHR Efficacy [%], AGO
[3] = biological target: T1, JHR (GCE:TAI); settings: Drosophila Kc167, read-out: JHR Efficacy [%]; remark: listed apart in the source
[4] = biological target: T2, human AHR; parameters: species or system HepG2 (AZ-AHR); settings: HepG2, read-out: AHR Efficacy [%]

T2 sequence (P35869 11-848): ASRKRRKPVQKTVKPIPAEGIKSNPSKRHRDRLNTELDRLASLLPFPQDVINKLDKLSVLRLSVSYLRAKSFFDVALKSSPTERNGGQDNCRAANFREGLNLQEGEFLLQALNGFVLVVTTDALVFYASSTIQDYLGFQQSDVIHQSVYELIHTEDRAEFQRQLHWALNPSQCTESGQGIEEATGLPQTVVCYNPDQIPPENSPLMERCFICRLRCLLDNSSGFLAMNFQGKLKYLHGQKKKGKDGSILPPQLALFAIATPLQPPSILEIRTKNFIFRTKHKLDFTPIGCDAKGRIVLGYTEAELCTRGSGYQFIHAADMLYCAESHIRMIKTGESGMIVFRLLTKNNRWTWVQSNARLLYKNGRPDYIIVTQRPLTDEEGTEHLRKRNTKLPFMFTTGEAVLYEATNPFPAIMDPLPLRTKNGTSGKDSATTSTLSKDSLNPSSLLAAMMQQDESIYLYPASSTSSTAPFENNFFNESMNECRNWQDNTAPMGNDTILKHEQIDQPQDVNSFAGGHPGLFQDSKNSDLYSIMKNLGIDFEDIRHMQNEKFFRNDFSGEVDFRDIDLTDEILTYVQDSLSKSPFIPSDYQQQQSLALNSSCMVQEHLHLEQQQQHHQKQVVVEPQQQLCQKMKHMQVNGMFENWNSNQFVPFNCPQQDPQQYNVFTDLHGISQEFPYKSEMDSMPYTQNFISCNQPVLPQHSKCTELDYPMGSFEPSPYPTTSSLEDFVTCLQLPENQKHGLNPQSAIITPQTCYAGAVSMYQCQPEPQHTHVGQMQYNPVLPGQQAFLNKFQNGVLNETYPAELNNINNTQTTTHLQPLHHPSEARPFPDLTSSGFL
T2 sequence (P27540 2-789 partner): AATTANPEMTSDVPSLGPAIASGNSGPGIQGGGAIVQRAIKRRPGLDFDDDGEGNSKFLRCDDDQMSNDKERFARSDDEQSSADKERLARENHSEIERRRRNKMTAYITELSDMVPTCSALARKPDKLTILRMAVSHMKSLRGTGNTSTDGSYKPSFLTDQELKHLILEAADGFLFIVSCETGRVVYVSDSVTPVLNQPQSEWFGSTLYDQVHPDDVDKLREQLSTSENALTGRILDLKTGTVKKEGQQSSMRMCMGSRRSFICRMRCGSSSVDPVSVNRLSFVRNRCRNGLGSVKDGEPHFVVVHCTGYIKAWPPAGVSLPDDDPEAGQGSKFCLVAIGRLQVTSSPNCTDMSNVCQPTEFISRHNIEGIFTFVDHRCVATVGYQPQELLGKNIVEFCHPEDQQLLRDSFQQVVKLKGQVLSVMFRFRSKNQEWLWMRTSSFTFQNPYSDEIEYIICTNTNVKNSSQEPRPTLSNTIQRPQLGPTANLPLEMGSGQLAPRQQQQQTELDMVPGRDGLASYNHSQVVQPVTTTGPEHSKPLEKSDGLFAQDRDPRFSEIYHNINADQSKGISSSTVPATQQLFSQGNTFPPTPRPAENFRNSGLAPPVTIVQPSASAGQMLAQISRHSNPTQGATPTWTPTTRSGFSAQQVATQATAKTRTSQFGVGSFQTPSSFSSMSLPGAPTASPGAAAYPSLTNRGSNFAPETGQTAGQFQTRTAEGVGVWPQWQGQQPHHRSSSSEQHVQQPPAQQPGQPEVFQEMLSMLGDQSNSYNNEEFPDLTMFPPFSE
T1 sequence (Q9VXW7 1-959): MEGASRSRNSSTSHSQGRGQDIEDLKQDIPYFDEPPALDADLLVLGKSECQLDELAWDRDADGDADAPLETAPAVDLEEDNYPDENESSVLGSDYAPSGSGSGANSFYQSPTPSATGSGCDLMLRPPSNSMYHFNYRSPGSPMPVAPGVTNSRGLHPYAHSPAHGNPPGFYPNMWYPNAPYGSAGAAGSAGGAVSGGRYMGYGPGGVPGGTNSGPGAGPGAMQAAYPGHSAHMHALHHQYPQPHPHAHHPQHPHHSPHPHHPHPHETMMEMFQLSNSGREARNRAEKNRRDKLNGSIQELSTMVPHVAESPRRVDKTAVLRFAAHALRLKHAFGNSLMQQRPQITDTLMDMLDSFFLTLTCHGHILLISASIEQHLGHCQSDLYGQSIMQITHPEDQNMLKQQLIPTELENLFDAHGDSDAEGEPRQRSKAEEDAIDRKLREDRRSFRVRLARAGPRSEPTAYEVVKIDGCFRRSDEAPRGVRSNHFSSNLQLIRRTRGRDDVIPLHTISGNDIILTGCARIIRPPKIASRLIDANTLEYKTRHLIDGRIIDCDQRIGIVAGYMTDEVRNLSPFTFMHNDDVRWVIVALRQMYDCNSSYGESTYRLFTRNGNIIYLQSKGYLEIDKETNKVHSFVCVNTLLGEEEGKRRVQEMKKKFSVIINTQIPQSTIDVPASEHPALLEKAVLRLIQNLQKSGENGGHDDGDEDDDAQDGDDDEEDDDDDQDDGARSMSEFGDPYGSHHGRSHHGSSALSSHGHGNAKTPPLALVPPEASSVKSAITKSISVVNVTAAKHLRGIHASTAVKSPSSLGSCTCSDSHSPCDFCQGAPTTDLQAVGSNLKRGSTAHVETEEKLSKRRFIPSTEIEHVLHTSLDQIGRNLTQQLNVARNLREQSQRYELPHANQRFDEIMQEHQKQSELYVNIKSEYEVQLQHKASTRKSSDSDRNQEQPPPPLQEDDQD
T1 sequence (Q9VLD9 1-2026 partner): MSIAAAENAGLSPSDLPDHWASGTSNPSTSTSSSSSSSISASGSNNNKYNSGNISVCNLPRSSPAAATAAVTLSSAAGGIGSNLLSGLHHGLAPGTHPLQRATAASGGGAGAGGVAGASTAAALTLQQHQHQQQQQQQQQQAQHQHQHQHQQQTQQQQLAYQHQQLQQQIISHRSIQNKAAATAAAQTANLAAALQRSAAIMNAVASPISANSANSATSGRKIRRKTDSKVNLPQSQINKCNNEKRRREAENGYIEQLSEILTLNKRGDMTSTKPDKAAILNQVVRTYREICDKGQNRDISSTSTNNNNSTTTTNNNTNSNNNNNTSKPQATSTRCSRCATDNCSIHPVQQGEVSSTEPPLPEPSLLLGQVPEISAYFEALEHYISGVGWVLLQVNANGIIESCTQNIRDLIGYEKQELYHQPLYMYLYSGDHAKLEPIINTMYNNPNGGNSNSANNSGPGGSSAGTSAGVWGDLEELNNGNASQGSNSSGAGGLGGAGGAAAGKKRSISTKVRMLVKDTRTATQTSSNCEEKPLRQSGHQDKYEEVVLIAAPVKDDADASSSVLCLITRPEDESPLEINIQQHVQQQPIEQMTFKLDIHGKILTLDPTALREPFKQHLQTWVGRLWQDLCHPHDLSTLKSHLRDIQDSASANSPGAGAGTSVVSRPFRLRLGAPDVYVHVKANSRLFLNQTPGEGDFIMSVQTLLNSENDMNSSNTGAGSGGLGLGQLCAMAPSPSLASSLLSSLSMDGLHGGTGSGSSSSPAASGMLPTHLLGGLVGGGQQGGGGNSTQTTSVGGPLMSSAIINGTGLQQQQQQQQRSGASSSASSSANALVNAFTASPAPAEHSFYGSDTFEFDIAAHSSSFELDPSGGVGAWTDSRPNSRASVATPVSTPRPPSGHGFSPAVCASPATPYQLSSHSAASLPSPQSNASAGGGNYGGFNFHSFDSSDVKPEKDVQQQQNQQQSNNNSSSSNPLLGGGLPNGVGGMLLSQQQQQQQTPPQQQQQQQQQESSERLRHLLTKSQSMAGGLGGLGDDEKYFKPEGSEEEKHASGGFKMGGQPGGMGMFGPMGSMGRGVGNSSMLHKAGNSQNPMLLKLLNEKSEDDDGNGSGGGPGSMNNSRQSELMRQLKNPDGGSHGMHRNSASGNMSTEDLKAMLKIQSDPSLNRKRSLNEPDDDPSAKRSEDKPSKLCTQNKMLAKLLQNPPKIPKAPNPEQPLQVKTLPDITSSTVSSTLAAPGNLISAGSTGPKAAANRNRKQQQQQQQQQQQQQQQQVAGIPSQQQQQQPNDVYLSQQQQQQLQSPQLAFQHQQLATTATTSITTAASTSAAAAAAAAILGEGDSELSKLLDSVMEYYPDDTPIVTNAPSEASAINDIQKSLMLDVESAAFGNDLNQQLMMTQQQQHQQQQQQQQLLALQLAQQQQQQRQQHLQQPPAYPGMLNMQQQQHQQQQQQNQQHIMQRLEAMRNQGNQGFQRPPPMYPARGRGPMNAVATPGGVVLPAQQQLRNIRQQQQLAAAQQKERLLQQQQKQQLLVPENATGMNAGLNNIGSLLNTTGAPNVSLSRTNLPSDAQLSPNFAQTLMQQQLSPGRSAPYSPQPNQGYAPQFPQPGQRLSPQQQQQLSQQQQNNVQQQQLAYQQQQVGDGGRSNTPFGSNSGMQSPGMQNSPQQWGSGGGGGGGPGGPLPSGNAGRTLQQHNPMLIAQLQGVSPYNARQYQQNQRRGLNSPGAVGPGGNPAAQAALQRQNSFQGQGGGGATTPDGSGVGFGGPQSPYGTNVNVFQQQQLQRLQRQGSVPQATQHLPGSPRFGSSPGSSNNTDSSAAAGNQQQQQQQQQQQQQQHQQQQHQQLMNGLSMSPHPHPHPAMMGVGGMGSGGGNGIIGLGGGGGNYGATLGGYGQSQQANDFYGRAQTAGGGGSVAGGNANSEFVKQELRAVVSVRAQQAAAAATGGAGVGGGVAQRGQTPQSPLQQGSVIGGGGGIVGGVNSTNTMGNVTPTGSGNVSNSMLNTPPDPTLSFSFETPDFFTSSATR

Row | SMILES | Emax [1] | Emax [2] | Emax [3] | Emax [4]
1 | Cc1c(C(=O)Nc2ccc3ncccc3c2)sc2ccccc12 [2.7, cmpd 2.7] | 85% | – | – | –
2 | Cc1nc(-c2ccsc2)sc1C(=O)Nc1cnn(C)c1 [cmpd 1.1] | 183% | 19% | – | –
3 | O=C(CCSc1nnc2ccccn12)NC(=O)NCc1ccccc1 [cmpd 1.2] | – | – | 83% | –
4 | CC(C)c1c(C(=O)NCC2CCCO2)nnn1-c1ccc(Br)cc1 (stereo not shown) [cmpd 1.3] | 254% | – | – | –
5 | CN(C(=O)CN1CCOC(c2nccs2)C1)c1nccs1 (stereo not shown) [cmpd 1.4] | 266% | – | – | –
6 | Cc1nc(NC(=O)c2ccccc2)sc1-c1cc(C(=O)NCC(=O)N[C@H](CCCN=C(N)N)C(=O)NCC(=O)N[C@H](CC(=O)O)C(=O)N[C@H](CC(=O)O)C(=O)N[C@H](CC(=O)O)C(N)=O)n[nH]1 [cmpd 2.1] (Bz-[X1]G[dR]G[dD][dD][dD]-NH2) | 143% | 52% | – | –
7 | CC(Sc1nccn1C)C(=O)Nc1nc(-c2ccccc2)cs1 (stereo not shown) [cmpd 2.2] | – | – | 110% | 103%
8 | O=C(Nc1ccc(-c2nccs2)cc1)c1ccccc1C(F)(F)F [cmpd 2.3] | – | – | 88% | –
9 | O=C(NCCCn1cccn1)c1ccc(C2CCCCC2)cc1 [cmpd 2.6] | – | – | 76% | 14%
10 | Cc1c(C(=O)NCCc2cccnc2)oc2ccc(F)cc12 [cmpd 2.8] | – | – | 126% | 87%
11 | OC(COc1ccc2cc(Br)ccc2c1)Cn1cccn1 (stereo not shown) [cmpd 2.9] | – | – | 70% | 19%
12 | Cc1csc(CCNC(=O)c2cnc(-c3ccccc3)nc2)n1 [cmpd 2.10] | – | – | 128% | 30%
13 | CC(NC(=O)CSCc1ccccc1)c1ccc(-n2ccnc2)cc1 (stereo not shown) [cmpd 2.12] | – | – | 109% | 45%
14 | CC(COc1ccc(Oc2ccccc2)cc1)Oc1ccccn1 (stereo not shown) [pyriproxyfen] | – | – | 62% | –
